The text below walks through data of ChEMBL document CHEMBL4017441, “Mitigating the inhibition of human bile salt export pump by drugs: opportunities provided by physicochemical property modulation, in silico modeling, and structural modification” (Drug Metab Dispos, 2012).

Structures can show the parent of a compound that is named as a salt.

For the assay, the target named is Bile salt export pump (Homo sapiens, UniProt O95342). It counts as ADME.

The term IC50 denotes the point on the concentration scale where inhibition reaches its midpoint. As for `NS(=O)(=O)c1cc2c(cc1Cl)N=C(CSCc1ccccc1)NS2(=O)=O` [BENZTHIAZIDE], the IC50 was 57.4 µM.

Consider `O=C(CCCN1CCC(O)(c2cccc(C(F)(F)F)c2)CC1)c1ccc(F)cc1` [TRIFLUPERIDOL], for which the IC50 was 19.7 µM. For `NS(=O)(=O)c1cc2c(cc1C(F)(F)F)NC(Cc1ccccc1)NS2(=O)=O` (stereo not given) [BENDROFLUMETHIAZIDE], the IC50 is 69.6 µM.

In the case of `COC(=O)[C@@H]1[C@H]2C[C@H]3c4[nH]c5ccccc5c4CCN3C[C@@H]2CC[C@@H]1O` [YOHIMBINE], the IC50 is 254 µM. With `O=C(/C=C/c1c(C(=O)O)[nH]c2cc(Cl)cc(Cl)c12)Nc1ccccc1` the figure was below 10 µM; with `c1ccc2[nH]c(-c3cscn3)nc2c1` [THIABENDAZOLE], 560 µM. With `C[C@@](Cc1ccc(O)c(O)c1)(NN)C(=O)O` [CARBIDOPA ANHYDROUS] the figure was above 1000 µM.

Take `CCc1cc(CC)c2oc(C(=O)O)cc(=O)c2c1O`: the IC50 came to 112 µM. As for `COc1ccc(Cc2nccc3cc(OC)c(OC)cc23)cc1OC` [PAPAVERINE], the IC50 was below 10 µM. With `CC(Cc1ccc2c(c1)OCO2)NCC(O)c1ccc(O)c(O)c1` (stereo not given) [PROTOKYLOL HYDROCHLORIDE] the figure was above 982 µM; with `OCCN1CCN(CCCN2c3ccccc3Sc3ccc(Cl)cc32)CC1` [PERPHENAZINE], 34.8 µM; with `CCCc1c(OCCCCc2nnn[nH]2)ccc(C(C)=O)c1O` [TOMELUKAST], below 10.7 µM. As to `C[C@H]1C[C@@H]2[C@H]([C@@H](O)C[C@@]3(C)[C@H]2CC[C@]3(O)C(=O)CO)[C@@]2(C)C=CC(=O)C=C12` [METHYLPREDNISOLONE], the half-inhibitory concentration (IC50) worked out at 33 µM. With `CC(=O)NC[C@H]1CN(c2ccc(N3CCOCC3)c(F)c2)C(=O)O1` [LINEZOLID] the figure was above 1000 µM. Regarding `CC(CCc1ccc(O)cc1)NCCc1ccc(O)c(O)c1` (stereo not given) [DOBUTAMINE], the IC50 was above 1000 µM. With `CN1CCN(c2ccccc2/C=C2/SCCN(c3ccc(Cl)c(Cl)c3)C2=O)CC1` the figure was below 10 µM; with PHENYLMERCURIC ACETATE, below 10 µM.

On to `CCN(CC)C(C)CN1c2ccccc2Sc2ccccc21` (stereo not given) [ETHOPROPAZINE], for which the concentration for half-maximal inhibition (IC50) was determined as 139 µM. With `CCOC(=O)n1ccn(C)c1=S` [CARBIMAZOLE] the figure was above 1000 µM; with `C[C@H]1C[C@@](O)(c2csc(Sc3ccc4c(c3)CC(=O)N4C)c2)CCO1`, below 10.9 µM; with `c1ccc(CN(CC2=NCCN2)c2ccccc2)cc1` [ANTAZOLINE], above 1000 µM. With `Cc1nc2c3c(ccn2c1CO)CCC(c1ccccc1)O3` (stereo not given), the 50% inhibitory concentration (IC50) was below 10 µM. For `CCCSc1nc(N)c2ncn([C@@H]3O[C@H](COP(=O)(O)OP(=O)(O)C(Cl)(Cl)P(=O)(O)O)[C@@H](O)[C@H]3O)c2n1`, the IC50 was above 1000 µM. With `CCCCOc1cc(C(=O)NCCN(CC)CC)c2ccccc2n1` [DIBUCAINE] the figure was 41.7 µM. With `CCCCNc1ccc(C(=O)OCCN(C)C)cc1` [TETRACAINE] the figure was 513 µM; with `COc1ncnc(NS(=O)(=O)c2ccc(N)cc2)c1OC` [SULFADOXINE], above 1000 µM; with `c1ccc2c(CC3=NCCN3)cccc2c1` [NAPHAZOLINE], above 1000 µM. With `Cc1ccccc1C(OCCN(C)C)c1ccccc1` (stereo not given) [ORPHENADRINE] the figure was above 1000 µM; with `Cc1cc2cc3c(C)cc(=O)oc3c(C)c2o1` [TRIOXSALEN], above 525 µM. Consider `CN(C)CCCN1c2ccccc2Sc2ccc(Cl)cc21` [CHLORPROMAZINE], for which the half-inhibitory concentration (IC50) was determined as 91 µM. With `O=C(O)c1ccccc1S` [THIOSALICYLIC ACID] the figure was above 1000 µM; with `Cc1onc(-c2ccccc2Cl)c1C(=O)N[C@@H]1C(=O)N2[C@@H]1SC(C)(C)[C@@H]2C(=O)O` [CLOXACILLIN], 41.6 µM; with `CN(C)/N=N/c1[nH]cnc1C(N)=O` [DACARBAZINE], above 1000 µM.

As to `CCCc1c2oc(C(=O)O)cc(=O)c2cc2c(=O)cc(C(=O)O)n(CC)c12` [NEDOCROMIL], the IC50 is above 1000 µM. With `O=C(O)c1cc2c(F)c(O)ccc2n1Cc1ccc(Cl)c(Cl)c1` the figure was 19.3 µM.
